Here are results for four compounds from US20230278972A1, “SUBSTITUTED HALOALKYL SULFONANILIDE HERBICIDES” (FMC Corporation, priority 2020, published 2023).

What all share (assay type): in vivo
Assay [1] deals with wheat (Triticum aestivum). In words: Test A1 preemergence, wheat. In short, it runs like this: (§1)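 Test compounds were formulated in a non-phytotoxic solvent mixture containing a surfactant. For preemergence, seeds sown in a loam soil–sand blend received a directed soil spray. For postemergence, potted plants in the same soil, 2 to 10 cm tall at the one- to two-leaf stage, were sprayed.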

For assay [2], the system named is goosegrass (Eleusine indica). In words: Test A1 postemergence, goosegrass. Conditions: Postemergence. The gist of the method:
(§2)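 Pre: seeds in loam/sand blend, directed soil spray. Post: potted plants, same soil, 2–10 cm, 1–2 leaf stage. Chemicals in non-phytotoxic solvent + surfactant for both.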

The subject of assay [3] is goosegrass (Eleusine indica). In words: Test A1 preemergence, goosegrass. In short, it runs like this: as §1
The test system of assay [4] is ragweed (common ragweed, Ambrosia artemisiifolia). In words: Test A1 preemergence, ragweed. The gist of the method:
as §1

The test system is the same in assay [5]. In words: Test A1 postemergence, ragweed. Conditions: Postemergence. In short, it runs like this: (§3)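 Seeds were first planted into a blend of loam soil and sand and given a preemergence directed soil spray. In parallel, pots of the same soil were sown for postemergence application once plants reached 2 to 10 cm and the one- to two-leaf stage. Both used surfactant-containing non-phytotoxic solvent formulations.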

Assay [6] relates to horseweed (Erigeron canadensis). In words: Test A1 postemergence, horseweed. The settings on record: Postemergence. In short, it runs like this:
as §2

For another assay, the system named is corn (Zea mays). In words: Test A1 preemergence, corn. The gist of the method:
as §3

The subject of assay [7] is Pigweed, Palmer (palmer amaranth, palmer pigweed, Amaranthus palmeri). In words: Test A1 postemergence, Pigweed, Palmer. The settings on record: Postemergence. In short, it runs like this:
as §3

Assay [8] has as its system Oat, Wild (wild oat, Avena fatua). In words: Test A1 postemergence, Oat, Wild. Conditions: Postemergence. The gist of the method:
as §3

The test system of assay [9] is blackgrass (Alopecurus myosuroides). In words: Test A1 preemergence, blackgrass. The gist of the method:
as §1

Setting [10] is: 31 g ai/ha, 0 to 100 scale (0 no effect, 100 complete control).
The mark [11] stands for this setting: 125 g ai/ha, 0 to 100 scale, 0 no effect, 100 complete control.
[12] abbreviates: 31 g ai/ha, 0 to 100 scale (0 no effect, 100 complete control), 10 days.

As to `Cc1cc(C2CC2)c(C2=NOC3CCCC23)cc1N(COC(=O)C(C)(C)C)S(=O)(=O)C(F)(F)F` (centres unmarked) [Compound 355], the “Plant response rating, Wheat” value in assay [1] (setting [10]) and in [1] (setting [11]) was 10 each time. Besides, the “Plant response rating, Goosegrass” value in assay [2] (setting [12]) is 0; in assay [2] (125 g ai/ha, 0 to 100 scale), 70; in assay [3] (setting [10]), 20; in assay [3] (setting [11]), 90. Moreover, the “Plant response rating, Ragweed” value in assay [4] (setting [10]) stood at 0; in assay [4] (setting [11]), 40; in [5] (setting [12]) it was 60; in assay [5] (125 g ai/ha, 0 to 100 scale) it was 60. In addition, the “Plant response rating, Horseweed” value in assay [6] (setting [12]) amounted to 70; in [6] (125 g ai/ha, 0 to 100 scale) it was 70. The “Plant response rating, Corn” value with corn (Zea mays) (setting [10]) and in the assay with corn (Zea mays) (setting [11]) was 0 throughout. In addition, the “Plant response rating, Pigweed, Palmer” value turned out to be 0 in assay [7] (setting [12]) and 30 in assay [7] (125 g ai/ha, 0 to 100 scale). Besides, the “Plant response rating, Oat, Wild” value is 0 in assay [8] (setting [12]) and 10 in [8] (125 g ai/ha, 0 to 100 scale). In addition, the “Plant response rating, Blackgrass” value in [9] (setting [10]) and in assay [9] (setting [11]) was 0 in each case.

In the case of `Cc1c(NS(=O)(=O)C(F)(F)F)cc(C(=O)N2CCC(Cl)CC2)c(C)c1C` [Compound 356], the entries for the “Plant response rating, Wheat” value in assay [1] (setting [10]) and in assay [1] (setting [11]) were 0 and 30, respectively. The “Plant response rating, Goosegrass” value in assay [2] (setting [12]) came to 0; in assay [2] (125 g ai/ha, 0 to 100 scale) it was 70; in [3] (setting [10]), 90; in [3] (setting [11]), 90. Also, the “Plant response rating, Ragweed” value in assay [4] (setting [10]) came out at 0; in assay [4] (setting [11]), 0; in assay [5] (setting [12]) it was 70; in assay [5] (125 g ai/ha, 0 to 100 scale) it was 80. For the same compound, the “Plant response rating, Horseweed” value in assay [6] (setting [12]) is on record as 50; in assay [6] (125 g ai/ha, 0 to 100 scale) it was 80. Also, the “Plant response rating, Corn” value in the assay on corn (Zea mays) (setting [10]) was 0; in the assay with corn (Zea mays) (setting [11]), 90. In addition, the “Plant response rating, Pigweed, Palmer” value in assay [7] (setting [12]) was 0; in [7] (125 g ai/ha, 0 to 100 scale), 10. For the same compound, the “Plant response rating, Oat, Wild” value in assay [8] (setting [12]) came out at 0; in [8] (125 g ai/ha, 0 to 100 scale), 10. For the same compound, the “Plant response rating, Blackgrass” value is recorded as 0 in assay [9] (setting [10]) and 10 in assay [9] (setting [11]).

Turning to `Cc1c(NS(=O)(=O)C(F)(F)F)cc(C(=O)N2CCC(F)(F)CC2)c(C)c1C` [Compound 357], the figures for the “Plant response rating, Wheat” value in assay [1] (setting [10]) and in [1] (setting [11]) were 0 and 10, respectively. In addition, the “Plant response rating, Goosegrass” value in [2] (setting [12]) worked out at 0; in assay [2] (125 g ai/ha, 0 to 100 scale), 70; in assay [3] (setting [10]), 80; in [3] (setting [11]) it was 100. Moreover, the “Plant response rating, Ragweed” value worked out at 0 in assay [4] (setting [10]); 80 in [4] (setting [11]); 80 in [5] (setting [12]); 80 in assay [5] (125 g ai/ha, 0 to 100 scale). For the same compound, the “Plant response rating, Horseweed” value in assay [6] (setting [12]) is 20; in [6] (125 g ai/ha, 0 to 100 scale), 80. Also, the “Plant response rating, Corn” value with corn (Zea mays) (setting [10]) turned out to be 10; in the assay with corn (Zea mays) (setting [11]) it was 90. Further, the “Plant response rating, Pigweed, Palmer” value in assay [7] (setting [12]) is 0; in assay [7] (125 g ai/ha, 0 to 100 scale) it was 50. The “Plant response rating, Oat, Wild” value in [8] (setting [12]) was 0; in assay [8] (125 g ai/ha, 0 to 100 scale) it was 0. Also, the “Plant response rating, Blackgrass” value is on record as 0 in assay [9] (setting [10]) and 10 in assay [9] (setting [11]).

Regarding `Cc1c(C(=O)N2CCC(F)(F)CC2)cc(N(COC(=O)C(C)(C)C)S(=O)(=O)C(F)(F)F)c(C)c1C` [Compound 360], the “Plant response rating, Wheat” value is given as 0 in [1] (setting [10]) and 10 in assay [1] (setting [11]). The “Plant response rating, Goosegrass” value in [2] (setting [12]) was determined as 0; in assay [2] (125 g ai/ha, 0 to 100 scale), 40; in [3] (setting [10]) it was 0; in assay [3] (setting [11]) it was 90. Moreover, the “Plant response rating, Ragweed” value is listed as 60 in assay [4] (setting [10]); 80 in [4] (setting [11]); 70 in assay [5] (setting [12]); 90 in [5] (125 g ai/ha, 0 to 100 scale). Besides, the “Plant response rating, Horseweed” value in assay [6] (setting [12]) turned out to be 10; in assay [6] (125 g ai/ha, 0 to 100 scale), 70. Besides, the “Plant response rating, Corn” value with corn (Zea mays) (setting [10]) and in the assay on corn (Zea mays) (setting [11]) was 0 each time. Further, the “Plant response rating, Pigweed, Palmer” value in assay [7] (setting [12]) worked out at 20; in [7] (125 g ai/ha, 0 to 100 scale) it was 40. In addition, the “Plant response rating, Oat, Wild” value in assay [8] (setting [12]) was 0; in [8] (125 g ai/ha, 0 to 100 scale), 0. Further, the “Plant response rating, Blackgrass” value in assay [9] (setting [10]) and in [9] (setting [11]) was 0 throughout.
